The text below walks through data of patent EP2948433B1, “ATGLISTATIN AS LIPASE INHIBITOR” (Technische Universität Graz, priority 2013, dated 2014).

For one test, the system named is WAT organ cultures. The test can be described thus: Lipolysis of isolated WAT organ cultures. The format is cell-based, C57BI6 mice. The settings on record: 8 h incubation. The protocol: • Figure 1. Structure of compounds 1 to 3 (reference) and compound 4 (atglistatin) and effect on ATGL activity. For determination of lipase activity, lysates of E. coli overexpressing recombinant strep-tagged ATGL and CGI-58 were incubated with a substrate containing radiolabeled [9,10-3H(N)]-triolein. Subsequently, FA were extracted and quantified by liquid scintillation counting. Lysates of cells expressing empty vector were set as blank. Inhibitors were solubilized in DMSO and added at the indicated concentrations. DMSO alone was used as negative control. (A) Structure and IC50 values of compounds 1-4. (B) Dose-dependent inhibition of ATGL in the presence of compound 3 and 4. […] (C) Lineweaver-Burk plots for kinetic analysis of ATGL inhibition. Experiments were performed at varying concentrations of substrate (0.05 - 3 mM) in presence and absence of compound 4 (Atglistatin). […] Data are presented as mean +/-S.D. of triplicate determinations. Data for compound 4 are representative for at least three independent experiments. • Figure 2. Selectivity of Atglistatin. Lipase activity of ATGL, HSL, lipoprotein lipase, and pancreatic lipase was determined using triolein as substrate. MGL activity was detected in the presence of rac-(1,3)-monooleoylglycerol as substrate. Inhibitors were solubilized in DMSO and added at the indicated concentrations. DMSO alone was used as negative control. (A) Dose-dependent inhibition of TG hydrolase activity in WAT lysates obtained from wild-type and ATGL-ko mice. (B) Inhibition of TG hydrolase activity in wild-type WAT lysates by Atglistatin (40 µM) and by the HSL inhibitor Hi 76-0079 (20 µM). (C) Effect of Atglistatin on murine MGL (purified from E. coli), and murine HSL (overexpressed in COS-7 lysates) activity. […] The release of FA (A) and glycerol (B) in the media was determined using commercial kits. […] At the indicated timepoints blood was taken retroorbitally and plasma parameters were measured using commercial kits. […] 8 h after gavage blood was taken retroorbitally and plasma parameters were measured using commercial kits. […]

The next test has as its target T1, murine HSL (Mus musculus, UniProt P54310).
T1 construct: His-tag (vector pcDNA4/HisMax); made in house; host or cells: COS-7 cells, transient transfection, 1,000 x g lysate
T1 sequence (P54310 1-759): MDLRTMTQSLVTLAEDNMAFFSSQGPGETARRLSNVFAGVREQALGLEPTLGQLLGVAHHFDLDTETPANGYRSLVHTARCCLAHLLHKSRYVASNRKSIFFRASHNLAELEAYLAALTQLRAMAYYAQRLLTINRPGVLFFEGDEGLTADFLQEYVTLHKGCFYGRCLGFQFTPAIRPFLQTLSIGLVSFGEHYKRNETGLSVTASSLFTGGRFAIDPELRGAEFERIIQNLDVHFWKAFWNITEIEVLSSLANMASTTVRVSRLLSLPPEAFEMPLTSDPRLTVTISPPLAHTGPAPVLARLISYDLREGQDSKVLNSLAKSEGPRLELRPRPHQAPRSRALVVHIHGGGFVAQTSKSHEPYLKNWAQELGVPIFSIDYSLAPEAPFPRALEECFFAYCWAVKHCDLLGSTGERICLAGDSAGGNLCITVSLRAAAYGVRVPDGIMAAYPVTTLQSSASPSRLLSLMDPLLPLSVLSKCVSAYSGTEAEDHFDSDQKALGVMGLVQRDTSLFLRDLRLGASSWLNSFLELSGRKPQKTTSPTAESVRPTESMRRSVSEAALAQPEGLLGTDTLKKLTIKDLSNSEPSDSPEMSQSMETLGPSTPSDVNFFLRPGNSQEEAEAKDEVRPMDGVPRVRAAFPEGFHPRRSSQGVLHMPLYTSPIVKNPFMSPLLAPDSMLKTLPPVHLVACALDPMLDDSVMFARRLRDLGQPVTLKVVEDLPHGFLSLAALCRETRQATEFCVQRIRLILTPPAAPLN
The test can be described thus: HSL activity, overexpressed in COS-7 lysates, triolein substrate. In kind it is biochemical. As to conditions: Fig. 2C. The protocol: (§1) • Figure 1. Structure of compounds 1 to 3 (reference) and compound 4 (atglistatin) and effect on ATGL activity. For determination of lipase activity, lysates of E. coli overexpressing recombinant strep-tagged ATGL and CGI-58 were incubated with a substrate containing radiolabeled [9,10-3H(N)]-triolein. Subsequently, FA were extracted and quantified by liquid scintillation counting. Lysates of cells expressing empty vector were set as blank. Inhibitors were solubilized in DMSO and added at the indicated concentrations. DMSO alone was used as negative control. (A) Structure and IC50 values of compounds 1-4. (B) Dose-dependent inhibition of ATGL in the presence of compound 3 and 4. […] (C) Lineweaver-Burk plots for kinetic analysis of ATGL inhibition. Experiments were performed at varying concentrations of substrate (0.05 - 3 mM) in presence and absence of compound 4 (Atglistatin). […] Lipase activity of ATGL, HSL, lipoprotein lipase, and pancreatic lipase was determined using triolein as substrate. MGL activity was detected in the presence of rac-(1,3)-monooleoylglycerol as substrate. […] The release of FA (A) and glycerol (B) in the media was determined using commercial kits. […] At the indicated timepoints blood was taken retroorbitally and plasma parameters were measured using commercial kits. […] 8 h after gavage blood was taken retroorbitally and plasma parameters were measured using commercial kits. […]

For the next test, the target named is T2, purified bovine LPL (Bos taurus, UniProt P11151).
T2 construct: purchased Sigma
T2 sequence (P11151 29-478): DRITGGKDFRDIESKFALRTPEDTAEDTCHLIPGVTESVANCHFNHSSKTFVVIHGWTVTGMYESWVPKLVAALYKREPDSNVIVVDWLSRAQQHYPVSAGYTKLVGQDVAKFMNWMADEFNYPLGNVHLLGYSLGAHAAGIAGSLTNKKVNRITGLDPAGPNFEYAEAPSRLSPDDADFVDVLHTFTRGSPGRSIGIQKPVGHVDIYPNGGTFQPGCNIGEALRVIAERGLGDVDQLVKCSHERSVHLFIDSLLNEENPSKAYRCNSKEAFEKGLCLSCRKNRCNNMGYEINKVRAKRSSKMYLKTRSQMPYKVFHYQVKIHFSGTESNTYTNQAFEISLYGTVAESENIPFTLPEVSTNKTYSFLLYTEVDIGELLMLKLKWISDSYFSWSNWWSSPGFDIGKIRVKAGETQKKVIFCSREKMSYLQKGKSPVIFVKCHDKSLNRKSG
In words: Lipoprotein lipase activity, purified enzyme, triolein substrate. The format is biochemical. As to conditions: Fig. 2D. As to the method: as §1

Turning to `CN(C)C(=O)Nc1cccc(-c2ccc(N(C)C)cc2)c1` [Atglistatin, atglistatin], the basal lipolysis entry with WAT organ cultures (dose dependent (0-50 µM)) is reported as “reduced basal lipolysis”. In addition, in the test on WAT organ cultures (up to, 10 µM forskolin), the “reduction of forskolin-stimulated FA release” value was “up to 72%” and the “reduction of forskolin-stimulated glycerol release” value is at most 66%. The “effect on HSL activity” value on murine HSL was “only minor effects”. The “effect on lipoprotein lipase” value on purified bovine LPL is listed as “only minor effects”.
